Measured values from article PMC10730845, “Endoxifen downregulates AKT phosphorylation through protein kinase C beta 1 inhibition in ERα+ breast cancer” (NPJ Breast Cancer, 2023).

Key:
[1] = ERα+ breast cancer patients receiving 20 mg/day TAM monotherapy; cited from earlier work
[2] = system: AKT phosphorylation (pAKT^Ser473, pAKT^Thr308, p-AKT substrates) in MCF7AC1 cells; assay: Immunoblot of AKT signaling and PARP cleavage, MCF7AC1; type: cell-based, human; settings: for Effect on insulin-stimulated AKT^Ser473 and AKT^Thr308 phosphorylations: 100 nM insulin 1 h, 0.1 µM
Description: The ENDX hydrochloride utilized in this study was synthesized in collaboration between Mayo Clinic and National Institute of Health (NIH). Estrogen deprived MCF7AC1 were treated with vehicle control or ENDX (National Cancer Institute) for 24 h. […] For the insulin (Sigma-Aldrich, #I0516) experiments, MCF7AC1 and T47D cells were maintained in serum-free medium for 24 h prior to pretreatment with vehicle control or drugs for 2 h followed by treatment with 100 nM insulin for 1 h.
(§1) Protein lysates were prepared using the RIPA lysis buffer system (ChemCruz #sc-24948) and quantified using the DC^TM Protein Assay reagents (Bio-Rad #5000112). Equal amounts of protein lysates were separated on 10% Criterion gels (Bio-Rad #3450112), transferred to PVDF membranes (Bio-Rad #1620177), blocked in TBST-5% milk and probed with primary antibodies listed in Supplementary Table 5, at the indicated dilutions. Membranes were incubated with HRP-conjugated anti-rabbit (CST #7074) or anti-mouse (CST #7076) secondary antibodies and visualized using chemiluminescent West Pico (Thermo Scientific #34580) or West Femto (Thermo Scientific #34096) reagents and a Li-Cor Odyssey® XF imager. Protein lysates from the MCF7AC1 xenograft model were obtained from a previous study. Quantitation of the protein bands signal intensity was performed using the NIH ImageJ image analysis software (https://imagej.nih.gov/ij///index.html). For the quantitation of the phospho protein levels, we first normalized total protein levels to β-actin loading control and used these values to normalize the phospho protein levels and compared change in protein expression levels relative to vehicle control normalized to 1.0. For the quantitation of total protein levels, we normalized the total protein levels to β-actin and compared change in expression levels relative to vehicle control normalized to 1.0. All blots were processed in parallel and derived from the same experiments. Unprocessed immunoblot images are provided in Supplementary Figs. 9–13.

MCF7AC1 cells [3] = assay: IncuCyte Annexin V apoptosis assay, MCF7AC1; type: cell-based, human; settings: for Effect on apoptosis: CSS medium, 48 h, ENDX 5 µM, TAM 0.1 µM, ICI 0.1 µM
Description: (§2) MCF7AC1 and T47D-LTED cells were plated at a density of 2000 cells per well in CSS medium for 24 h. Cells were then co-treated for 48 h with vehicle or drug, IncuCyte Annexin V green reagent (#4642, 1:300), an early-stage apoptosis marker, and IncuCyte NucLight rapid red reagent (#4717, 1:500), a dye that stains all cell nuclei red, in CSS medium. MCF7AC1^caAKT cells were plated at a cell density of 2000 cells per well in CSS medium in the absence or presence of cumate for 48 h and then co-treated with vehicle or drug, Annexin V green and NucLight rapid red reagents in the absence or presence of cumate for an additional 48 h in CSS medium.

[4] = system: AKT phosphorylation in T47D cells; assay: Immunoblot of AKT phosphorylation, serum starved T47D; type: cell-based, human; settings: 0.1 µM
Description: (§3) The ENDX hydrochloride utilized in this study was synthesized in collaboration between Mayo Clinic and National Institute of Health (NIH). Estrogen deprived MCF7AC1 were treated with vehicle control or ENDX (National Cancer Institute) for 24 h. For the phorbol 12-myristate 13-acetate (PMA) (LC Laboratories, #P-1680) experiments, MCF7AC1 cells were maintained in serum-free medium for 24 h prior to pretreatment with vehicle or ENDX for 2 h followed by treatment with 20 or 200 nM PMA for 20 min. For the insulin (Sigma-Aldrich, #I0516) experiments, MCF7AC1 and T47D cells were maintained in serum-free medium for 24 h prior to pretreatment with vehicle control or drugs for 2 h followed by treatment with 100 nM insulin for 1 h.
as §1, with “Protein lysates from the MCF7AC1 xenograft model were obtained from a previous study.” left out, “All blots were processed in parallel and derived from the same experiments. Unprocessed immunoblot images are provided in Supplementary Figs. 9–13.” left out

PKCβ1 in MCF7AC1 cells [5] = assay: Immunoblot of PKCβ1 and pPKCβ1^Ser661, MCF7AC1; type: cell-based, human; settings: serum starved; for Effect on PKCβ1 total protein in insulin treated cells: 100 nM insulin 1 h, ENDX 0.01, 0.1, 5 µM, TAM 0.1 µM, ICI 0.1 µM
Description: as §3, §1

[6] = system: AKT^Ser473 phosphorylation in T47D-LTED cells; assay: Immunoblot of pAKT^Ser473, T47D-LTED; type: cell-based, human; settings: CSS medium, 24 h; 1 and 5 µM, but not 0.1 µM
Description: as §1, with “All blots were processed in parallel and derived from the same experiments. Unprocessed immunoblot images are provided in Supplementary Figs. 9–13.” left out

T47D-LTED cells [7] = assay: Crystal violet cell viability assay, T47D-LTED; type: cell-based, human; settings: CSS medium, six days
Description: (§4) Cells were plated at a density of 2000 cells per well. Cell viability of (i) vehicle or drug treated MCF7AC1 and T47D-LTED cells in CSS medium, (ii) siNT or siPKCβ-transfected MCF7AC1 cells in CSS medium and (iii) T47D cells in FBS versus CSS medium were analyzed by crystal violet staining assay after 6 days of treatment or siRNA transfection as previously described. Cell viability was calculated as the average absorbance of the drug treated cells divided by the average absorbance of the vehicle treated cells × 100.
(§5) Supplementary Figure 6. […] Cell viability is assessed by the crystal violet assay. b, MCF7AC1 cells were co-treated with vehicle control or 0.01, 0.1 and 5 µM MK-2206 and IncuCyte Annexin V green and NucLight rapid red reagents in CSS medi um for 48 hours. […]
Cells were plated at a density of 2000 cells per well. c, MCF7AC1 cells were treated with vehicle control or 0.01, 0.1 and 5 µM MK-2206 in CSS medium for 24 hours. […] Cell viability is assessed by the crystal violet assay. f, Parental T47D and T47D-LTED cells were processed for protein lysates. […] Cell viability is assessed by the crystal violet assay. h, T47D-LTED cells were co-treated with vehicle control or 0.01, 0.1 and 5 µM MK -2206 and IncuCyte Annexin V green and NucLight rapid red reagents in CSS medium for 48 hours. […] Cell viability is assessed by the crystal violet assay. […]

MCF7AC1 cells [8] = assay: Crystal violet cell viability / proliferation assay, MCF7AC1; type: cell-based, human; settings: estrogen deprived (CSS), six days
Description: Fig. 1 Z-endoxifen (ENDX) effects on cell viability and apoptosis in estrogen deprived ERα+ /HER2- MCF7AC1 cells. a Cells grown in CSS medium were treated with vehicle control or the indicated ENDX concentrations for […]. Cell viability was assessed by the crystal violet assay. b Cells were co-treated with vehicle control or the indicated ENDX concentrations, IncuCyte Annexin V green and NucLight red reagents in CSS medium for 48 h. […] Data represents the mean of six wells per treatment performed as biological duplicates ± s.d. **p ≤ 0.01; ***p ≤ 0.001; ****p ≤ 0.0001 by one-way ANOVA.
as §4

T47D-LTED cells [9] = assay: IncuCyte Annexin V apoptosis assay, T47D-LTED; type: cell-based, human; settings: CSS medium; 1 and 5 µM, but not 0.1 µM
Description: as §2, §5
Cells were plated at a density of 2000 cells per well. c, MCF7AC1 cells were treated with vehicle control or 0.01, 0.1 and 5 µM MK-2206 in CSS medium for 24 hours. […] Cell viability is assessed by the crystal violet assay. f, Parental T47D and T47D-LTED cells were processed for protein lysates. […] Percentage of cells undergoing apoptosis was calculated as mentioned in b. i, T47D-LTED cells were treated with vehicle control or 0.01, 0.1 and 5 µM MK -2206 in CSS medium for 24 hours . […]

[10] = system: ERα+/HER2- metastatic breast cancer; settings: cited from earlier work
PKCβ1 in MCF7AC1 cells [11] = assay: Immunoblot of PKCβ1 and pPKCβ1^Ser661, MCF7AC1; type: cell-based, human; settings: serum starved, 1 µM ENZA 2 h, 200 nM PMA 30 min

Compound: CC/C(=C(\c1ccc(O)cc1)c1ccc(OCCN(C)C)cc1)c1ccccc1 [4-HT]
- Clinically attainable serum concentration [1]: < 5 nM

Compound: C[C@]12CC[C@@H]3c4ccc(O)cc4C[C@@H](CCCCCCCCC[S+]([O-])CCCC(F)(F)C(F)(F)F)[C@H]3[C@@H]1CC[C@@H]2O (stereo partly drawn) [ICI, ICI-182780, reference compound]
- Effect on insulin-stimulated AKT^Ser473 and AKT^Thr308 phosphorylations ([2]; serum starved): failed to inhibit insulin-stimulated AKT^Ser473 and AKT^Thr308 phosphorylations
- Effect on apoptosis (MCF7AC1 cells [3]): failed to induce apoptosis
- Effect on insulin-stimulated AKT^Ser473 phosphorylation [4]: failing to block insulin-stimulated AKT^Ser473 phosphorylation
- Effect on PKCβ1 total protein in insulin treated cells (PKCβ1 in MCF7AC1 cells [5]): failed to diminish PKCβ1 total protein expression

Compound: NC1(c2ccc(-c3nc4ccn5c(=O)[nH]nc5c4cc3-c3ccccc3)cc2)CCC1 [MK-2206, reference compound]
- Concentrations reducing AKT^Ser473 phosphorylation [6]: ≥ 1 µM
- Concentrations at which AKT^Ser473 phosphorylation was reduced ([2]; estrogen deprived (CSS), 24 h): ≥ 1 µM
- Concentration at which apoptosis (annexin V binding and PARP1 cleavage) was induced (MCF7AC1 cells [3]; estrogen deprived (CSS)): 5 µM
- Concentration from which growth was significantly inhibited (T47D-LTED cells [7]): ≥ 0.1 µM
- Concentrations at which growth was inhibited (MCF7AC1 cells [8]): ≥ 0.1 µM
- Concentrations increasing apoptosis (annexin V staining, PARP cleavage) (T47D-LTED cells [9]): ≥ 1 µM

Compound: CCCCCCCCCCCCCC(=O)O[C@@H]1[C@@H](C)[C@@]2(O)[C@@H](C=C(CO)C[C@]3(O)C(=O)C(C)=C[C@@H]23)[C@@H]2C(C)(C)[C@]12OC(C)=O [PMA, phorbol 12-myristate 13-acetate, reference compound]
- Effect of PKC agonist on PKCβ1^Ser661 and AKT^Ser473 phosphorylation (PKCβ1 in MCF7AC1 cells [5]; 20 and 200 nM, 20 min): stimulated PKCβ1^Ser661 auto-phosphorylation and AKT^Ser473 phosphorylation

Compound: CC/C(=C(\c1ccccc1)c1ccc(OCCN(C)C)cc1)c1ccccc1 [TAM, tamoxifen, reference compound]
- PFS in CDK4/6 inhibitor naïve patients ([10]; CDK4/6i naïve): 2.4 m
- Progression free survival (PFS) overall ([10]; women with ERα+/HER2- metastatic breast cancer progressed on endocrine therapy): 1.8 m
- Effect on insulin-stimulated AKT^Ser473 and AKT^Thr308 phosphorylations ([2]; serum starved): failed to inhibit insulin-stimulated AKT^Ser473 and AKT^Thr308 phosphorylations
- Effect on apoptosis (MCF7AC1 cells [3]): failed to induce apoptosis
- Effect on insulin-stimulated AKT^Ser473 phosphorylation [4]: failing to block insulin-stimulated AKT^Ser473 phosphorylation
- Effect on PKCβ1 total protein in insulin treated cells (PKCβ1 in MCF7AC1 cells [5]): failed to diminish PKCβ1 total protein expression

Compound: Cn1cc(C2=C(c3cn(C4CCN(Cc5ccccn5)CC4)c4ccccc34)C(=O)NC2=O)c2ccccc21 [enzastaurin]
- Effect on PKCβ1 expression (PKCβ1 in MCF7AC1 cells [11]): neither impacted the expression of PKCβ1
- Effect on PMA-stimulated PKCβ1^Ser661 phosphorylation (PKCβ1 in MCF7AC1 cells [11]): reduced PKCβ1^Ser661 phosphorylation

Compound: Insulin: known activator of AKT^Ser473 phosphorylation (Sigma-Aldrich)
- Effect on AKT^Ser473 phosphorylation ([2]; serum starved, 100 nM, 1 h): robustly stimulated AKT^Ser473 phosphorylation
